Read-outs that look alike come from different tables or passages of the source.
Tests used:
Raji cells (BL) = test: Cell viability assay (CellTiter-Glo), Raji; assay type: cell-based; conditions: Homo sapiens, 72 h, n = 3
Method: (§1) All cell lines were purchased from ATCC, except for DoHH-2 cells that were obtained from DSMZ. Cells were cultivated in complete DMEM supplemented with 10% (vol/vol) FBS (Gibco) and 1% of penicillin/streptomycin (Gibco). The cells were grown in a humidified atmosphere of 5% CO2 at 37°C, with the medium changed every other day.
(§2) Cells were inoculated at a density of 5000 cells/well. Serially diluted compounds (starting at 50 μM) were added 24 h later. The assay was performed in triplicates. After 72 h of incubation, cellular viability was assessed by CellTiter-Glo (Promega) according to the manufacturer’s instructions. The values were normalized with the vehicle (DMSO), and the IC50 was calculated using GraphPad Prism 8.

primary DLBCL samples = test: Ex vivo model of diffuse large B-cell lymphoma (Pharmacoscopy, drug response score); assay type: cell-based, human; conditions: 72 h, 4-point dose–response from 10 μM
BLK = BLK (Homo sapiens, UniProt P51451); test: NanoBRET in-cell target engagement, BLK; assay type: binding; design: host or cells: HEK296T (so in the source)
Sequence of BLK (P51451 whole entry): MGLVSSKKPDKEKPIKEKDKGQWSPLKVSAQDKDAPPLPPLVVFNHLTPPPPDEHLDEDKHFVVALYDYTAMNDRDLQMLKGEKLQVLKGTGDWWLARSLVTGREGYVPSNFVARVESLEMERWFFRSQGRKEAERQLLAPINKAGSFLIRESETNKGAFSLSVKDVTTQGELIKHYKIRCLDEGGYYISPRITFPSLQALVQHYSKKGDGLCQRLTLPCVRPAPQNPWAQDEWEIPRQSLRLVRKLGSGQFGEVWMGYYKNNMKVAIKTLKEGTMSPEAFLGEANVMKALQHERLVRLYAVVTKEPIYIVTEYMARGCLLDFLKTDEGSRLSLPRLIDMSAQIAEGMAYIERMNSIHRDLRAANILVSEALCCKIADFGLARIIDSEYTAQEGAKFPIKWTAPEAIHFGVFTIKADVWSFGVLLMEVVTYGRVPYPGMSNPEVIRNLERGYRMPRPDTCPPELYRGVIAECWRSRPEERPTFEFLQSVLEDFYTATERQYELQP
Method: In-cell target engagement was performed at Reaction Biology Corporation, using NanoBRET technology. Very briefly, HEK296T cells were transfected and treated in duplicate with JS25 for 1 h of incubation. The compound was diluted 10 times with 3-fold dilution, starting at 1 μM. Curve fits were performed only when the % NanoBret signal at the highest concentration of compounds was less than 55%. The IC50 values were determined using GraphPad Prism 8 ([…]).

BTK [1] = biological target: T1, BTK (Homo sapiens, UniProt Q06187); test: BTK degradation in Raji cells (Western blot); assay type: cell-based; design: endogenous in cells; host or cells: Raji cells (Burkitt's lymphoma); conditions: 10 μM
T1 sequence (Q06187 whole entry): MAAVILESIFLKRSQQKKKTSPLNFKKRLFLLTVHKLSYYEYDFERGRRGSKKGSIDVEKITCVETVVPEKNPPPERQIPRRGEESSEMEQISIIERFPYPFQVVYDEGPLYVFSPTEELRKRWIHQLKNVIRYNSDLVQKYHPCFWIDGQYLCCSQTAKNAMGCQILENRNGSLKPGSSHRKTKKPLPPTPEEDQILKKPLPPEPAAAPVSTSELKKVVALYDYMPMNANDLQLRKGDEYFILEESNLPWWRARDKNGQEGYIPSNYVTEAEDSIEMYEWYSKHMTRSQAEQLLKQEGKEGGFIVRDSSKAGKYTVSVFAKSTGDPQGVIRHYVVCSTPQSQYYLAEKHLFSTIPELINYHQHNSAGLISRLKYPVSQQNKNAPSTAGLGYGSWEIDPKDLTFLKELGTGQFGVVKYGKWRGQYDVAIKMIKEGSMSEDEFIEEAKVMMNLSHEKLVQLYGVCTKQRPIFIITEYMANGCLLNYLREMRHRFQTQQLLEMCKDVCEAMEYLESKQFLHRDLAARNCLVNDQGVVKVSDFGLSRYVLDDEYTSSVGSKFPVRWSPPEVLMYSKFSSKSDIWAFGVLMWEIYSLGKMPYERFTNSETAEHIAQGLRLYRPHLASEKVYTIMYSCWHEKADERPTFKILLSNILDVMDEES
Method: Raji cells were inoculated at 0.5 × 10^6 cells/mL, and JS25 was added at a final concentration of 10 μM. At 0, 4, and 15 h of incubation, the cells were harvested, and the pellets were resuspended in lysis buffer (20 mM Tris–HCl, 150 mM NaCl, pH 8.0, 0.1% Triton X-100), supplemented with EDTA-free Protease Inhibitor Cocktail (Merck) and DNase I (Merck). The protein concentration was determined using the Pierce BCA Protein Assay Kit (Thermo Scientific). Western blot was performed with rabbit BTK antibody (1:1000; 3533, Cell Signaling Technology), mouse α-Tubulin antibody (1:5000; 5168, Merck), goat anti-rabbit IgG (H + L) secondary antibody HRP (1:7000; 65-6120, Invitrogen), and goat anti-mouse IgG (H + L) secondary antibody HRP (1:5000; 2-6520, Invitrogen).

HBEC-5i cells = test: Cell viability assay (CellTiter-Glo), HBEC-5i; assay type: cell-based; conditions: Homo sapiens, 72 h, n = 3
Method: as §2
Human cerebral microvascular endothelial cells (HBEC-5i) were cultured as a monolayer on attachment factor protein solution (AF)-coated T-flasks (Gibco), using DMEM/F12 medium (Gibco), supplemented with 10% FBS, 1% penicillin/streptomycin, and 40.0 μg/mL endothelial cell growth supplement (ECGS, Sigma), according to the manufacturer’s instructions. The capacity of the compounds to cross the brain–blood barrier (BBB) was evaluated using an in vitro HBEC-5i cell model, as previously described.[29] Samples from the apical and basolateral sides were collected, and fluorescence intensity was measured using a Varioskan LUX multimode microplate reader. The retention was considered the difference between the initial fluorescence of compounds (100%) and the aggregated apical and basolateral fluorescence.

HL-60 cells (APML) = test: Cell viability assay (CellTiter-Glo), HL-60; assay type: cell-based; conditions: Homo sapiens, 72 h, n = 3
Method: as §1, §2

BTK [2] = biological target: T1, BTK; design: purchased Promega Corporation V2941; conditions: first value of 5.8/28 in Table S3; ref 23 (SI ref 20); read-out: IC50 (potency against BTK), earlier value of JS25; cited from earlier work

IC50 (Raji cells (BL)): 2.3 µM
selectivity for BTK relative to BLK (BLK): 100 fold
IC50 (BLK; HEK296T cells, 1 h incubation, average of duplicates, read-out: IC50 (M), BLK): 2.6e-06 M
IC50 (BLK; NanoBRET value as given in Table S3, read-out: IC50, BLK): ~3e-06 M
BTK degradation (BTK [1]; 4 h): evident
BTK degradation (BTK [1]; 15 h): almost completed
IC50 (HL-60 cells (APML)): 1.95 µM
Structure (SMILES): C=CC(=O)Nc1cc(C)cc(-n2c(=O)ccc3cnc4ccc(-c5ccc(NS(C)(=O)=O)cc5)cc4c32)c1 [JS25]
patients with off-target or nonspecific killing (DRS < 0) (primary DLBCL samples; 11 patients): ~36%
patients with “on-target” effect (DRS > 0) (primary DLBCL samples; JS25 11 patients, ibrutinib 10 patients): 64%
IC50 (HBEC-5i cells): 23.4 ± 0.98 µM
IC50 (BTK [2]): 0.0058 µM

From publication PMC9667546, “Selective Inhibition of Bruton’s Tyrosine Kinase by a Designed Covalent Ligand Leads to Potent Therapeutic Efficacy in Blood Cancers Relative to Clinically Used Inhibitors” (ACS Pharmacology & Translational Science, 2022)
